Results published in ChEMBL document CHEMBL3745682, “Pivotal role of glycogen synthase kinase-3: A therapeutic target for Alzheimer's disease” (Eur J Med Chem, 2016).

Legend:
[1] = target: T1, Glycogen synthase kinase-3 (Homo sapiens, UniProt P49840+P49841); type: protein assay
Description: Inhibition of glycogen synthase kinase-3 (unknown origin)

[2] = target: T2, Glycogen synthase kinase-3 beta (Homo sapiens, UniProt P49841); assay: Inhibition of glycogen synthase kinase-3 beta (unknown origin) using GS-1 as substrate after 20 mins by scintillation counting analysis in presence of [gamma-32P]-ATP
T2 sequence (P49841 whole entry): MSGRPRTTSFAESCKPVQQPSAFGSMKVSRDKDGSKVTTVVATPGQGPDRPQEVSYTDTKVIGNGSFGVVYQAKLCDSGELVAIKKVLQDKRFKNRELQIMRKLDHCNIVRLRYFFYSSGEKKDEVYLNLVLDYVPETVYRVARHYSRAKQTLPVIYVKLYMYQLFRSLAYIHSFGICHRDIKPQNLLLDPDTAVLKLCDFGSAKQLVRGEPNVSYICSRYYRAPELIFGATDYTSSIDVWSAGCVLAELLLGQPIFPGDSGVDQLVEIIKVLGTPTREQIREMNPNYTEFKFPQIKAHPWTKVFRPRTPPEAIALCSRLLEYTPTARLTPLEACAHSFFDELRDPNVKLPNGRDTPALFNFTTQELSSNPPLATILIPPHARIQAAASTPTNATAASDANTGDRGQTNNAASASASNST

[3] = target: T2, Glycogen synthase kinase-3 beta
Description: Competitive inhibition of glycogen synthase kinase-3 beta (unknown origin) using GS-1 as substrate after 30 mins by scintillation counting analysis in presence of [gamma-32P]-ATP

[4] = target: T1, Glycogen synthase kinase-3; assay: Competitive inhibition of glycogen synthase kinase-3 (unknown origin) in presence of ATP; type: protein assay

## Br.CCOC(=O)C/N=C1\NC(c2ccccc2)N(c2ccccc2)S1 (centres undefined)
[1]
  IC50: 7.05 µM

## Clc1cccc(C2=NC(c3ccccc3)=NN(c3ccccc3)c3ccccc32)c1
[1]
  IC50: 3.38 µM

## CC(=O)C1=C(c2cn(C)c3ccccc23)C(=O)NC1=O
[1]
  IC50: 4.47 µM

## O=S=C(CCl)c1ccc(Cl)cc1
[2]
  IC50: > 100 µM

## O=C1Nc2ccccc2/C1=C1/Nc2cc(Br)ccc2C1=O
[3]
  IC50: 4 nM

## COc1ccc(CNC(=O)Nc2nc(C)c(C(C)=O)s2)cc1
[4]
  IC50: 400 nM

## O=C1Nc2ccccc2/C1=C1/Nc2ccccc2C1=O [INDIRUBIN]
[3]
  IC50: 4 nM

## O=C(CBr)c1ccc(C2C(=O)c3ccccc3C2=O)cc1
[2]
  IC50: 100 µM

## Br.Br.c1ccc(C/N=C2\NC(c3ccccc3)N(c3ccccc3)S2)cc1 (centres undefined)
[1]
  IC50: 1.28 µM
